Measured values reported in patent US20070049564A1 (Wyeth, priority 2005, published 2007).
Converted amounts (≈) assume the structure as drawn. Read-outs that look alike come from different tables or passages of the source.

Assays:
E. coli #311 = test: In vivo activity (oral, iv; ED50) against E. coli in mice; conditions: Escherichia coli
Excerpt: . […] Smith and E. Coli #311 in mammals.
Results of the tests (MIC, oral and IV) are list in Table 7.

E. coli = test: Range of MIC for E. coli strains; conditions: Escherichia coli
Staph. = test: Range of MIC for Staph. strains, including MRSA; conditions: Staphylococcus aureus
Staph. aureus Smith = test: In vivo activity (oral, iv; ED50) against Staph. aureus Smith in mice
[1] = single intravenous dose (SIV), read-out: ED50 E. coli #311 SIV
[2] = single oral dose (SOD), read-out: ED50 E. coli #311 SOD
[3] = 20 h, read-out: Range of MIC, E. coli (Mouse Serum)
[4] = MRSA, read-out: Range of MIC, Staph (Mouse Serum)
[5] = MRSA, read-out: Range of MIC, Staph (Water)
[6] = Staphylococcus aureus, in Mus musculus, po, read-out: ED50 Staph Smith SOD
[7] = iv, read-out: ED50 Staph Smith SIV

| MIC (E. coli; [3]) [µg/mL] | MIC (Staph.; [4]) [µg/mL] | MIC (Staph.; [5]) [µg/mL] | MIC (Staph.; read-out: Minimum inhibitory concentration (MIC), Staph (Human Serum)) [µg/mL] | MIC (Staph.; read-out: Minimum inhibitory concentration (MIC), Staph (Water)) [µg/mL] | MIC (E. coli; read-out: Range of MIC, E. coli (Water)) [µg/mL] | SMILES | ED50 (E. coli #311; [1]) [mg/kg] | ED50 (E. coli #311; [2]) [mg/kg] | ED50 (Staph. aureus Smith; [6]) [mg/kg] | ED50 (Staph. aureus Smith; [7]) [mg/kg] |
| --- | --- | --- | --- | --- | --- | --- | --- | --- | --- | --- |
| 0.25 to 1 (≈ 0.304 to 1.22 µM) | 0.25 to 1 (≈ 0.304 to 1.22 µM) | 4 to 16 (≈ 4.87 to 19.5 µM) | – | – | – | CC(C)Oc1ccc(C(=O)OCOC(=O)N(CC(=O)Nc2cc(N(C)C)c3c(c2O)C(=O)C2=C(O)[C@]4(O)C(=O)C(C(N)=O)=C(O)[C@@H](N(C)C)[C@@H]4C[C@@H]2C3)C(C)(C)C)cc1 [Example 96, ({[(2-{[(5aR,6aS,7S,10aS)-9-(aminocarbonyl)-4,7-bis(dimethylamino)-1,8,10a,11-tetrahydroxy-10,12-dioxo-5,5a,6,6a,7,10,10a,12-octahydrotetracen-2-yl]amino}-2-oxoethyl)(tert-butyl)amino]carbonyl}oxy)methyl 4-isopropoxybenzoate] | 2 to 4 | > 32 | 16 to 32 | 1 to 2 |
| 0.5 to 8 (≈ 0.601 to 9.62 µM) | 1 to 2 (≈ 1.2 to 2.4 µM) | 2 to 8 (≈ 2.4 to 9.62 µM) | 1 to 4 (≈ 1.2 to 4.81 µM) | 2 to 8 (≈ 2.4 to 9.62 µM) | – | CN(C)c1cc(NC(=O)CN(C(=O)OCOC(=O)c2ccc(C(F)(F)F)cc2)C(C)(C)C)c(O)c2c1C[C@H]1C[C@H]3[C@H](N(C)C)C(O)=C(C(N)=O)C(=O)[C@@]3(O)C(O)=C1C2=O [Example 55, ({[(2-{[(5aR,6aS,7S,10aS)-9-(aminocarbonyl)-4,7-bis(dimethylamino)-1,8,10a,11-tetrahydroxy-10,12-dioxo-5,5a,6,6a,7,10,10a,12-octahydrotetracen-2-yl]amino}-2-oxoethyl)(tert-butyl)amino]carbonyl}oxy)methyl 4-(trifluoromethyl)benzoate] | 4.69 | 32 | > 16 | 1.81 |
| 0.12 to 0.25 (≈ 0.143 to 0.298 µM) | 0.5 to 1 (≈ 0.595 to 1.19 µM) | 32 to 64 (≈ 38.1 to 76.2 µM) | – | – | > 64 | CN(C)c1cc(NC(=O)CN(C(=O)OCOC(=O)c2ccc(-c3ccccc3)cc2)C(C)(C)C)c(O)c2c1C[C@H]1C[C@H]3[C@H](N(C)C)C(O)=C(C(N)=O)C(=O)[C@@]3(O)C(O)=C1C2=O [Example 71, ({[(2-{[(5aR,6aS,7S,10aS)-9-(aminocarbonyl)-4,7-bis(dimethylamino)-1,8,10a,11-tetrahydroxy-10,12-dioxo-5,5a,6,6a,7,10,10a,12-octahydrotetracen-2-yl]amino}-2-oxoethyl)(tert-butyl)amino]carbonyl}oxy)methyl 1,1′-biphenyl-4-carboxylate] | > 4 | > 32 | > 32 | 1 |
